Laboratory results published in patent US11040981B2, “Pyrrolotriazine compounds and methods of inhibiting TAM kinases” (Syros Pharmaceuticals, Inc., priority 2017, dated 2021).

Legend:
[1] = biological target: T1, MERTK (Homo sapiens, UniProt Q12866); assay: TR-FRET kinase activity assay, MERTK; type: biochemical; conditions: for IC50: TR-FRET activity assay, ATP at Km, 60 minutes, read-out: Mer IC50
T1 sequence (Q12866 21-999): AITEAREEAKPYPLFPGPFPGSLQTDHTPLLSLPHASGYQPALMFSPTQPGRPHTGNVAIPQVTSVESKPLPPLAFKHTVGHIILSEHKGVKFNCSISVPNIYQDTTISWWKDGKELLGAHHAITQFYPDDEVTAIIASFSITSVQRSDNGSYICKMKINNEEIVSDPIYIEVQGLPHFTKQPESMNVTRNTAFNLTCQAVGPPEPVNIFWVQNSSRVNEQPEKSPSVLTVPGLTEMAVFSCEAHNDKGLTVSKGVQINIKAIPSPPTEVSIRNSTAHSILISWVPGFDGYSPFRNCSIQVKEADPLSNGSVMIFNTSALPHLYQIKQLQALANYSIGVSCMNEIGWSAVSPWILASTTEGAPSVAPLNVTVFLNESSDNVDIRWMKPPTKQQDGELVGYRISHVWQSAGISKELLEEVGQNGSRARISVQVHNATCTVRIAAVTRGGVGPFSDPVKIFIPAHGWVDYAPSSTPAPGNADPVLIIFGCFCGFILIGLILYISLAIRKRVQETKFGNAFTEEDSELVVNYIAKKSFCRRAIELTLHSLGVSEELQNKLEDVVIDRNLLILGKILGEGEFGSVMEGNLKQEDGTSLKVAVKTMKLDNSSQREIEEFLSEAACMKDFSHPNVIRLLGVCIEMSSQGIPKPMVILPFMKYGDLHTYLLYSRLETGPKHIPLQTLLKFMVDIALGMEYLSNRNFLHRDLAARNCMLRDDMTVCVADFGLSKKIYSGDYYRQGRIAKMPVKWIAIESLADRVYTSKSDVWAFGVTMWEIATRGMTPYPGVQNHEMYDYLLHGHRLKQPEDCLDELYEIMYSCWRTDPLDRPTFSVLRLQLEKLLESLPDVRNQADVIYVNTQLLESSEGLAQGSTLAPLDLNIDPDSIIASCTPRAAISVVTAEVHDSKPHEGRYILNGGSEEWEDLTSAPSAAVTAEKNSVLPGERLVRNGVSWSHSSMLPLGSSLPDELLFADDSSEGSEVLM
Procedure, shortened: (§1)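 IC50 reflects the drop in TR-FRET between Eu anti-phosphotyrosine antibody and labelled peptide after a 60-minute room-temperature reaction. Buffer was 50 mM HEPES pH 7.5 with 10 mM MgCl2, 1 mM EGTA, 0.01% Brij 35 and 1 mM DTT, with ATP at Km per enzyme and EDTA quench.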

[2] = biological target: T2, AXL (Homo sapiens, UniProt P30530); assay: TR-FRET kinase activity assay, AXL; type: biochemical; conditions: ATP at Km, 60 minutes
T2 sequence (P30530 26-894): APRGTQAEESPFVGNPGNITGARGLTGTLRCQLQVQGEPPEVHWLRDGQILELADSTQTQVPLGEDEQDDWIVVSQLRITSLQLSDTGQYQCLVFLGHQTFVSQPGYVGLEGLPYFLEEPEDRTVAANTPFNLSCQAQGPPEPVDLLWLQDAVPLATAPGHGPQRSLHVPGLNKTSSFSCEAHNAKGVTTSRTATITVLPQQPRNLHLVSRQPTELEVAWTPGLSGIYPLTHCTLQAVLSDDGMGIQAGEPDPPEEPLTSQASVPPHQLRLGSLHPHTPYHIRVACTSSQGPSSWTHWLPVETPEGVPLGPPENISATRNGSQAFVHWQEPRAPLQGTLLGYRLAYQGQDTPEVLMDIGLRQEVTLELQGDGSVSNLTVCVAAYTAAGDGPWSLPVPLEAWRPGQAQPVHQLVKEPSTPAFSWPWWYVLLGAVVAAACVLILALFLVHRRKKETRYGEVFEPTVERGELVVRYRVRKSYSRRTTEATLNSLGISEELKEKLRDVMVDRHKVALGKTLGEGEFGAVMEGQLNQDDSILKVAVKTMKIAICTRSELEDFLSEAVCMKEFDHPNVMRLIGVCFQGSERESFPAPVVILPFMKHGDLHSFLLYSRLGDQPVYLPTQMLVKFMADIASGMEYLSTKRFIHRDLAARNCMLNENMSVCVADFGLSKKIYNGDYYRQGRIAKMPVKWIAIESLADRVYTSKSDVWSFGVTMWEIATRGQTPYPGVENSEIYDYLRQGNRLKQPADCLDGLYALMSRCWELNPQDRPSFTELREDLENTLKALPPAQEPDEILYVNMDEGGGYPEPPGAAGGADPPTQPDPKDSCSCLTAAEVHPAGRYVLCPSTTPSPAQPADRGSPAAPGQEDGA
Procedure, shortened: as §1

[3] = ratio calculated as FLT3 IC50/Mer IC50
[4] = ratio of Mer to FLT3: FLT3 IC50/Mer IC50

SMILES | IC50 [1] [nM] | FLT3/Mer ratio (FLT3 IC50/Mer IC50) [1, 3] | IC50 [2] [nM] | FLT3/Mer ratio (FLT3 IC50/Mer IC50) [1, 4]
COC[C@H](C)Nc1ncc2c(C3=CCNCC3)cc([C@H]3CC[C@H](O)CC3)n2n1 [Compound 443] | ≤ 100 | +++ (“+++” represents a ratio of >100) | ≤ 100 | 
COC[C@H](C)Nc1ncc2c(-c3cnn(CC4CCO4)c3)cc([C@H]3CC[C@H](O)CC3)n2n1 (stereo partly drawn) [Compound 439] | ≤ 100 | +++ (“+++” represents a ratio of >100) | ≤ 100 | 
CCCCC[C@H](C)Nc1ncc2c([C@H]3CC[C@@H](C(=O)N4CCN(C)CC4)CC3)cc([C@H]3CC[C@H](O)CC3)n2n1 [Compound 127] | ≤ 100 |  | ≤ 100 | +++ (“+++” represents a ratio of >100)
COC[C@H](C)Nc1ncc2c(C3=C[C@H]4CC[C@@H](C3)N4)cc([C@H]3CC[C@H](O)CC3)n2n1 [Compound 467] | ≤ 100 | +++ (“+++” represents a ratio of >100) | ≤ 100 | 
COC[C@H](C)Nc1ncc2c(C3=C[C@H]4CCC(C3)N4C(C)=O)cc([C@H]3CC[C@H](O)CC3)n2n1 [Compound 468] | ≤ 100 | +++ (“+++” represents a ratio of >100) | ≤ 100 | 
CC[C@H](C)Nc1ncc2c(C3=CCOCC3)cc([C@H]3CC[C@H](O)CC3)n2n1 [Compound 128] | ≤ 100 |  | ≤ 100 | ++ (“++” represents a ratio of between 10 and 100)
COC[C@H](C)Nc1ncc2c(-c3cnn(C(C)(C)C(=O)N4CCC(C)(O)CC4)c3)cc([C@H]3CC[C@H](O)CC3)n2n1 [Compound 450] | ≤ 100 | +++ (“+++” represents a ratio of >100) | ≤ 100 | 
COC[C@H](C)Nc1ncc2c(-c3ccnc(N4CCNCC4)c3)cc([C@H]3CC[C@H](O)CC3)n2n1 [Compound 434] | ≤ 100 | +++ (“+++” represents a ratio of >100) | ≤ 100 | 
COC[C@H](C)Nc1ncc2c(C3=C[C@H]4CC[C@@H](C3)N4CC(F)(F)F)cc([C@H]3CC[C@H](O)CC3)n2n1 [Compound 492] | ≤ 100 | +++ (“+++” represents a ratio of >100) | ≤ 100 | 
CC[C@H](C)Nc1ncc2c(C3CCOCC3)cc([C@H]3CC[C@H](O)CC3)n2n1 [Compound 129, (trans)-4-(2-((S)-sec-butylamino)-5-(tetrahydro-2H-pyran-4-yl)pyrrolo[2,1-f][1,2,4]triazin-7-yl)cyclohexanol] | ≤ 100 |  | 100 to 1000 | +++ (“+++” represents a ratio of >100)
C[C@H](CC(F)(F)F)Nc1ncc2c(C3=C[C@H]4CC[C@@H](C3)N4C(=O)OC(C)(C)C)cc([C@H]3CC[C@H](O)CC3)n2n1 [Compound 456] | ≤ 100 | +++ (“+++” represents a ratio of >100) | ≤ 100 | 
COC[C@H](C)Nc1ncc2c(C3=C[C@H]4CC[C@@H](C3)N4C)cc([C@H]3CC[C@H](O)CC3)n2n1 [Compound 494] | ≤ 100 | +++ (“+++” represents a ratio of >100) | ≤ 100 | 
COC[C@H](C)Nc1ncc2c(C3=CCN(C(=O)OC(C)(C)C)CC3)cc([C@H]3CC[C@H](O)CC3)n2n1 [Compound 425] | ≤ 100 | +++ (“+++” represents a ratio of >100) | ≤ 100 | 

The next lines start with the values.

IC50 [1] [nM] | FLT3/Mer ratio (FLT3 IC50/Mer IC50) [1, 3] | IC50 [2] [nM] | FLT3/Mer ratio (FLT3 IC50/Mer IC50) [1, 4] | SMILES
≤ 100 | +++ (“+++” represents a ratio of >100) | ≤ 100 |  | COC[C@H](C)Nc1ncc2c(-c3cccc(C4CCc5nc(C)[nH]c5C4)c3)cc([C@H]3CC[C@H](O)CC3)n2n1 (stereo partly drawn) [Compound 498]
≤ 100 | +++ (“+++” represents a ratio of >100) | ≤ 100 |  | COC[C@H](C)Nc1ncc2c(-c3cnn(C[C@H]4CC(=O)N(C)C4)c3)cc([C@H]3CC[C@H](O)CC3)n2n1 [Compound 475]
≤ 100 | +++ (“+++” represents a ratio of >100) | ≤ 100 |  | CCC(=O)N1CCN(c2cc(-c3cc([C@H]4CC[C@H](O)CC4)n4nc(N[C@@H](C)COC)ncc34)ccn2)CC1 [Compound 432]
≤ 100 | +++ (“+++” represents a ratio of >100) | ≤ 100 |  | COC[C@H](C)Nc1ncc2c(-c3ccc(C(C)(C)C(=O)N4CCOCC4)s3)cc([C@H]3CC[C@H](O)CC3)n2n1 [Compound 460]
≤ 100 | +++ (“+++” represents a ratio of >100) | ≤ 100 |  | COC[C@H](C)Nc1ncc2c(-c3ccnc(N4CCOC4=O)c3)cc([C@H]3CC[C@H](O)CC3)n2n1 [Compound 438]
≤ 100 | +++ (“+++” represents a ratio of >100) | ≤ 100 |  | COC[C@H](C)Nc1ncc2c(-c3cnn([C@@H]4CCN(C)C4=O)c3)cc([C@H]3CC[C@H](O)CC3)n2n1 [Compound 471]
≤ 100 | +++ (“+++” represents a ratio of >100) | ≤ 100 |  | C[C@@H](COC(F)F)Nc1ncc2c(-c3cnn(CCC#N)c3)cc([C@H]3CC[C@H](O)CC3)n2n1 [Compound 437]
≤ 100 | +++ (“+++” represents a ratio of >100) | ≤ 100 |  | COC[C@H](C)Nc1ncc2c(-c3cnn([C@H]4CCN(C)C4=O)c3)cc([C@H]3CC[C@H](O)CC3)n2n1 [Compound 470]
≤ 100 | +++ (“+++” represents a ratio of >100) | 100 to 1000 |  | COC[C@H](C)Nc1ncc2c(C#CC(C)(C)C(=O)N3CCOCC3)cc([C@H]3CC[C@H](O)CC3)n2n1 [Compound 449]
≤ 100 | +++ (“+++” represents a ratio of >100) | ≤ 100 |  | COC[C@H](C)Nc1ncc2c(-c3ccnc(N4Cc5nc(C)sc5C4)c3)cc([C@H]3CC[C@H](O)CC3)n2n1 [Compound 479, (trans)-4-(2-(((S)-1-methoxypropan-2-yl)amino)-5-(2-(2-methyl-4H-pyrrolo[3,4-d]thiazol-5(6H)-yl)pyridin-4-yl)pyrrolo[2,1-f][1,2,4]triazin-7-yl)cyclohexanol]
≤ 100 | +++ (“+++” represents a ratio of >100) | ≤ 100 |  | COC[C@H](C)Nc1ncc2c(-c3cnn(C(C)(C)C(=O)N4CCOCC4)c3)cc(C3CCc4[nH]ncc4C3)n2n1 (stereo partly drawn) [Compound 488]
≤ 100 | +++ (“+++” represents a ratio of >100) | ≤ 100 |  | C[C@@H](CC(F)F)Nc1ncc2c(-c3ccc(S(C)(=O)=O)nc3)cc([C@H]3CC[C@H](O)CC3)n2n1 [Compound 489]
≤ 100 | +++ (“+++” represents a ratio of >100) | ≤ 100 |  | COC[C@H](C)Nc1ncc2c(-c3ccnc(N4CC5(COC5)C4)c3)cc([C@H]3CC[C@H](O)CC3)n2n1 [Compound 426]
